System: MV-4-11 cells
Experiment: Gene expression microarray analysis (Affymetrix PrimeView) and GSEA
Assay type: cell-based, human
Set-up: RFU PODN (11730768_x_at) / Fold change /veh PODN (11730768_x_at) / RFU LINC00158 (11744669_a_at) / Fold change /veh LINC00158 (11744669_a_at) / RFU DUSP10 (11751237_a_at) / Fold change /veh DUSP10 (11751237_a_at) / RFU ID3 (11757404_x_at) / Fold change /veh ID3 (11757404_x_at) / RFU PLEKHG5 (11737974_s_at) / Fold change /veh PLEKHG5 (11737974_s_at) / RFU LRRC4B (11730491_at) / Fold change /veh LRRC4B (11730491_at) / RFU GIMAP4 (11747438_a_at) / Fold change /veh GIMAP4 (11747438_a_at) / RFU KRT8 (11758183_x_at) / Fold change /veh KRT8 (11758183_x_at) / RFU CNN1 (11734310_a_at) / Fold change /veh CNN1 (11734310_a_at) / RFU VPS37D (11726825_at) / Fold change /veh VPS37D (11726825_at) / RFU C10orf10 (11716522_x_at) / Fold change /veh C10orf10 (11716522_x_at) / RFU KIR2DL2 /// KIR2DL4 /// KIR2DL5A /// KIR2DL5B /// KIR2DS1 /// KIR2DS2 /// KIR2DS3 /// KIR2DS4 /// KIR3DL3 /// KIR3DL3 /// KIR3DS1 (11738374_at) / Fold change /veh KIR2DL2 /// KIR2DL4 /// KIR2DL5A /// KIR2DL5B /// KIR2DS1 /// KIR2DS2 /// KIR2DS3 /// KIR2DS4 /// KIR3DL3 /// KIR3DL3 /// KIR3DS1 (11738374_at) / RFU C1QL1 (11718748_at) / Fold change /veh C1QL1 (11718748_at) / RFU TMPRSS4 (11747572_a_at) / Fold change /veh TMPRSS4 (11747572_a_at) / RFU HAMP (11756126_x_at) / Fold change /veh HAMP (11756126_x_at) / RFU RNFT2 (11725882_a_at) / Fold change /veh RNFT2 (11725882_a_at) / RFU NR4A2 (11747474_a_at) / Fold change /veh NR4A2 (11747474_a_at) / RFU ABCC12 (11746883_a_at) / Fold change /veh ABCC12 (11746883_a_at) / RFU TMEM136 (11760407_x_at) / Fold change /veh TMEM136 (11760407_x_at) / RFU CLDN22 /// WWC2 (11732394_at) / Fold change /veh CLDN22 /// WWC2 (11732394_at) / RFU HLA-DPB1 (11760878_x_at) / Fold change /veh HLA-DPB1 (11760878_x_at) / RFU SPINT1 (11716480_a_at) / Fold change /veh SPINT1 (11716480_a_at) / RFU GAP43 (11754022_s_at) / Fold change /veh GAP43 (11754022_s_at) / RFU A4GNT (11735810_at) / Fold change /veh A4GNT (11735810_at) / RFU PRB3 (11715151_x_at) / Fold change /veh PRB3 (11715151_x_at) / RFU TUBB4B (11761932_at) / Fold change /veh TUBB4B (11761932_at) / RFU CAPN14 (11732068_a_at) / Fold change /veh CAPN14 (11732068_a_at) / RFU TMCC2 (11721928_a_at) / Fold change /veh TMCC2 (11721928_a_at) / RFU IRGQ (11745062_a_at) / Fold change /veh IRGQ (11745062_a_at) / RFU FAM174B (11720279_a_at) / Fold change /veh FAM174B (11720279_a_at) / RFU TMPRSS4 (11748680_a_at) / Fold change /veh TMPRSS4 (11748680_a_at) / RFU FAM212B (11763350_a_at) / Fold change /veh FAM212B (11763350_a_at) / RFU PLEKHG5 (11743358_a_at) / Fold change /veh PLEKHG5 (11743358_a_at) / RFU ZSCAN30 (11745921_a_at) / Fold change /veh ZSCAN30 (11745921_a_at) / RFU CMKLR1 (11741424_a_at) / Fold change /veh CMKLR1 (11741424_a_at) / RFU LOC101060620 /// MAPK8IP1 (11723275_at) / Fold change /veh LOC101060620 /// MAPK8IP1 (11723275_at) / RFU SPTSSB (11747773_x_at) / Fold change /veh SPTSSB (11747773_x_at) / RFU PRSS12 (11739890_at) / Fold change /veh PRSS12 (11739890_at) / RFU BIN1 (11741810_x_at) / Fold change /veh BIN1 (11741810_x_at) / RFU WNT11 (11732464_a_at) / Fold change /veh WNT11 (11732464_a_at) / RFU C10orf10 (11716521_a_at) / Fold change /veh C10orf10 (11716521_a_at) / RFU C5orf56 (11738089_at) / Fold change /veh C5orf56 (11738089_at) / RFU CYB561 (11721691_x_at) / Fold change /veh CYB561 (11721691_x_at) / RFU ANKRD19P (11752326_a_at) / Fold change /veh ANKRD19P (11752326_a_at) / RFU OR2T12 /// OR2T33 /// OR2T8 (11738714_s_at) / Fold change /veh OR2T12 /// OR2T33 /// OR2T8 (11738714_s_at) / RFU VCAN (11748164_a_at) / Fold change /veh VCAN (11748164_a_at) / RFU JSRP1 (11732532_at) / Fold change /veh JSRP1 (11732532_at) / RFU KRTAP10-11 (11738290_x_at) / Fold change /veh KRTAP10-11 (11738290_x_at) / RFU MYO3A (11730013_a_at) / Fold change /veh MYO3A (11730013_a_at) / RFU EBF3 (11725865_a_at) / Fold change /veh EBF3 (11725865_a_at) / RFU CAMK2N1 (11719241_x_at) / Fold change /veh CAMK2N1 (11719241_x_at) / RFU C5orf56 (11738088_a_at) / Fold change /veh C5orf56 (11738088_a_at) / RFU OLFML3 (11715873_a_at) / Fold change /veh OLFML3 (11715873_a_at) / RFU LOC100653217 /// NTM (11731650_a_at) / Fold change /veh LOC100653217 /// NTM (11731650_a_at) / RFU MAPK11 (11762145_a_at) / Fold change /veh MAPK11 (11762145_a_at) / RFU FIZ1 (11724087_x_at) / Fold change /veh FIZ1 (11724087_x_at) / RFU OASL (11726364_x_at) / Fold change /veh OASL (11726364_x_at) / RFU SOX15 (11748057_x_at) / Fold change /veh SOX15 (11748057_x_at) / RFU CD79A (11719716_a_at) / Fold change /veh CD79A (11719716_a_at) / RFU HIST1H1D (11736915_at) / Fold change /veh HIST1H1D (11736915_at) / RFU CASKIN2 (11723855_a_at) / Fold change /veh CASKIN2 (11723855_a_at) / RFU LOC730098 (11760151_x_at) / Fold change /veh LOC730098 (11760151_x_at) / RFU OR4N2 (11742367_at) / Fold change /veh OR4N2 (11742367_at) / RFU PRRT2 (11749266_a_at) / Fold change /veh PRRT2 (11749266_a_at) / RFU SNX32 (11753110_a_at) / Fold change /veh SNX32 (11753110_a_at) / RFU CDHR5 (11726645_a_at) / Fold change /veh CDHR5 (11726645_a_at) / RFU RCAN1 (11760418_a_at) / Fold change /veh RCAN1 (11760418_a_at) / RFU FAM167A (11723789_a_at) / Fold change /veh FAM167A (11723789_a_at) / RFU FAM26E (11764081_at) / Fold change /veh FAM26E (11764081_at) / RFU ISYNA1 (11749810_s_at) / Fold change /veh ISYNA1 (11749810_s_at) / RFU ACY1 (11761880_at) / Fold change /veh ACY1 (11761880_at) / RFU 11764098_at / Fold change /veh 11764098_at / RFU SAMD14 (11745864_x_at) / Fold change /veh SAMD14 (11745864_x_at) / RFU NPB (11741838_a_at) / Fold change /veh NPB (11741838_a_at) / RFU TMPRSS6 (11731388_a_at) / Fold change /veh TMPRSS6 (11731388_a_at) / RFU KRTAP10-2 (11738614_at) / Fold change /veh KRTAP10-2 (11738614_at) / RFU ARHGAP8 /// PRR5-ARHGAP8 (11727945_x_at) / Fold change /veh ARHGAP8 /// PRR5-ARHGAP8 (11727945_x_at) / RFU KRTAP5-7 /// NADSYN1 (11734609_at) / Fold change /veh KRTAP5-7 /// NADSYN1 (11734609_at) / RFU RASL12 (11751679_a_at) / Fold change /veh RASL12 (11751679_a_at) / RFU CDKN2B (11736163_a_at) / Fold change /veh CDKN2B (11736163_a_at) / RFU PRF1 (11729649_at) / Fold change /veh PRF1 (11729649_at) / RFU, ZNF638 /// ZNF638-IT1 / Fold change vs veh, ZNF638 /// ZNF638-IT1 / RFU, PANK3 / Fold change vs veh, PANK3 / RFU, SH3YL1 / Fold change vs veh, SH3YL1 / RFU, ZEB2 / Fold change vs veh, ZEB2 / RFU, NRIP1 / Fold change vs veh, NRIP1 / RFU, PTTG1IP / Fold change vs veh, PTTG1IP / RFU, CAPN2 / Fold change vs veh, CAPN2 / RFU, MED14 / Fold change vs veh, MED14 / RFU, SNORA58 / Fold change vs veh, SNORA58 / RFU, C1orf63 / Fold change vs veh, C1orf63 / RFU, LRRFIP1 / Fold change vs veh, LRRFIP1 / RFU, NDUFAF7 / Fold change vs veh, NDUFAF7 / RFU, SLC12A2 / Fold change vs veh, SLC12A2 / RFU, IBTK / Fold change vs veh, IBTK / RFU, ESF1 / Fold change vs veh, ESF1 / Fold change vs veh, TMEM50B / RFU, TAOK1 / Fold change vs veh, TAOK1 / RFU, ACBD3 / Fold change vs veh, ACBD3 / RFU, TMA16 / Fold change vs veh, TMA16 / RFU, RWDD3 / Fold change vs veh, RWDD3 / RFU, BCAT1 / Fold change vs veh, BCAT1 / RFU, EDEM3 / Fold change vs veh, EDEM3 / RFU, TMEM33 / Fold change vs veh, TMEM33 / RFU, WDR75 / Fold change vs veh, WDR75 / RFU, AHCTF1 / Fold change vs veh, AHCTF1 / RFU, TFRC / Fold change vs veh, TFRC / RFU, ZDHHC17 / Fold change vs veh, ZDHHC17 / RFU, NOM1 / Fold change vs veh, NOM1 / RFU, ARL8B / Fold change vs veh, ARL8B / RFU, ZBTB11 / Fold change vs veh, ZBTB11 / RFU, TAMM41 / Fold change vs veh, TAMM41 / RFU, KIAA1704 /// LOC100996395 / Fold change vs veh, KIAA1704 /// LOC100996395 / RFU, ING1 / Fold change vs veh, ING1 / RFU, TRMT61B / Fold change vs veh, TRMT61B / RFU, FUBP3 / Fold change vs veh, FUBP3 / RFU, TP53 / Fold change vs veh, TP53 / RFU, TNKS2 / Fold change vs veh, TNKS2 / RFU, ZFP14 / Fold change vs veh, ZFP14 / RFU, ACTR2 / Fold change vs veh, ACTR2 / RFU, PPP3R1 / Fold change vs veh, PPP3R1 / RFU, PIK3R1 / Fold change vs veh, PIK3R1 / RFU, HNRNPA1 / Fold change vs veh, HNRNPA1 / RFU, RNF170 / Fold change vs veh, RNF170 / RFU, ZNF28 / Fold change vs veh, ZNF28 / RFU, RNGTT / Fold change vs veh, RNGTT / RFU, OGT / Fold change vs veh, OGT / RFU, BRD1 / Fold change vs veh, BRD1 / RFU, MARS / Fold change vs veh, MARS / RFU, ZNF655 / Fold change vs veh, ZNF655 / RFU, FAHD1 / Fold change vs veh, FAHD1 / RFU, BDP1 / Fold change vs veh, BDP1 / RFU, LRRCC1 / Fold change vs veh, LRRCC1 / RFU, ARID1A / Fold change vs veh, ARID1A / RFU, ZNF146 / Fold change vs veh, ZNF146 / RFU, ZNF330 / Fold change vs veh, ZNF330 / RFU, GPN3 / Fold change vs veh, GPN3 / RFU, C9orf123 / Fold change vs veh, C9orf123 / RFU, N4BP2L2 / Fold change vs veh, N4BP2L2 / RFU, ARFIP1 / Fold change vs veh, ARFIP1 / RFU, FAM179B / Fold change vs veh, FAM179B / RFU, BCL10 / Fold change vs veh, BCL10 / RFU, UHRF1BP1L / Fold change vs veh, UHRF1BP1L / RFU, BET1 / Fold change vs veh, BET1 / RFU, CNOT2 / Fold change vs veh, CNOT2 / RFU, ZNF268 / Fold change vs veh, ZNF268 / Fold change vs veh, ZNF507 / RFU, DGCR2 / Fold change vs veh, DGCR2 / RFU, WDSUB1 / Fold change vs veh, WDSUB1 / Fold change vs veh, HSP90B1 /// MIR3652 / RFU, ADSS / Fold change vs veh, ADSS / RFU, GK / Fold change vs veh, GK / RFU, ZNF148 / Fold change vs veh, ZNF148 / RFU, TAF9 / Fold change vs veh, TAF9 / RFU, SLC1A5 / Fold change vs veh, SLC1A5 / RFU, SLMO2 / Fold change vs veh, SLMO2 / RFU, ABCC4 / Fold change vs veh, ABCC4 / RFU, LOC101060439 /// RAP1B / Fold change vs veh, LOC101060439 /// RAP1B / RFU, RFX7 / Fold change vs veh, RFX7 / RFU, GTPBP10 / Fold change vs veh, GTPBP10 / RFU, CNEP1R1 / Fold change vs veh, CNEP1R1 / RFU, BIVM-ERCC5 /// ERCC5 / Fold change vs veh, BIVM-ERCC5 /// ERCC5 / RFU, ILF3 / Fold change vs veh, ILF3 / RFU 11762660_at / Fold change /veh 11762660_at / RFU VCAN (11757783_s_at) / Fold change /veh VCAN (11757783_s_at) / RFU DDX43 (11728927_at) / Fold change /veh DDX43 (11728927_at) / RFU KRT8 (11758188_x_at) / Fold change /veh KRT8 (11758188_x_at) / RFU NKD1 (11759106_at) / Fold change /veh NKD1 (11759106_at) / RFU SRD5A1 (11742802_a_at) / Fold change /veh SRD5A1 (11742802_a_at) / RFU TPSAB1 /// TPSB2 (11721975_s_at) / Fold change /veh TPSAB1 /// TPSB2 (11721975_s_at) / RFU GSTM3 (11746129_a_at) / Fold change /veh GSTM3 (11746129_a_at) / RFU IL23R (11737362_x_at) / Fold change /veh IL23R (11737362_x_at) / RFU TMEM51 (11727254_a_at) / Fold change /veh TMEM51 (11727254_a_at) / RFU PIWIL2 (11732686_x_at) / Fold change /veh PIWIL2 (11732686_x_at) / RFU ORM1 (11744905_x_at) / Fold change /veh ORM1 (11744905_x_at) / RFU CCDC152 (11743942_at) / Fold change /veh CCDC152 (11743942_at) / RFU ECM1 (11717891_a_at) / Fold change /veh ECM1 (11717891_a_at) / RFU IL23R (11748794_a_at) / Fold change /veh IL23R (11748794_a_at) / RFU TNFAIP8L3 (11732012_x_at) / Fold change /veh TNFAIP8L3 (11732012_x_at) / RFU MBOAT4 (11741988_at) / Fold change /veh MBOAT4 (11741988_at) / RFU 11764193_at / Fold change /veh 11764193_at / RFU TMEM53 (11763286_at) / Fold change /veh TMEM53 (11763286_at) / RFU MAGEB2 (11727129_at) / Fold change /veh MAGEB2 (11727129_at) / RFU TMEM200A (11744735_a_at) / Fold change /veh TMEM200A (11744735_a_at) / RFU CCDC152 (11751479_a_at) / Fold change /veh CCDC152 (11751479_a_at) / RFU FAM211A (11726209_a_at) / Fold change /veh FAM211A (11726209_a_at) / RFU RGS16 (11746705_a_at) / Fold change /veh RGS16 (11746705_a_at) / RFU VCAN (11755009_s_at) / Fold change /veh VCAN (11755009_s_at) / RFU RHOB (11743442_s_at) / Fold change /veh RHOB (11743442_s_at) / RFU RGS16 (11720943_a_at) / Fold change /veh RGS16 (11720943_a_at) / RFU RGS16 (11720944_at) / Fold change /veh RGS16 (11720944_at) / RFU, VPS4B / Fold change vs veh, VPS4B / RFU, CREB1 / Fold change vs veh, CREB1 / RFU, DNAJC13 / Fold change vs veh, DNAJC13 / RFU, GNAQ / Fold change vs veh, GNAQ / RFU, CDK5R1 / Fold change vs veh, CDK5R1 / RFU, ZRANB3 / Fold change vs veh, ZRANB3 / RFU, CUL4A / Fold change vs veh, CUL4A / RFU, CCNY / Fold change vs veh, CCNY / RFU, UFL1 / Fold change vs veh, UFL1 / RFU, COG3 / Fold change vs veh, COG3 / RFU, DIAPH2 / Fold change vs veh, DIAPH2 / RFU, SKA2 / Fold change vs veh, SKA2 / RFU, AFF3 / Fold change vs veh, AFF3 / RFU, LMF1 / Fold change vs veh, LMF1 / RFU, IPO11 / Fold change vs veh, IPO11 / RFU, DFFB / Fold change vs veh, DFFB / RFU, FOXP1 / Fold change vs veh, FOXP1 / RFU, CARD8 / Fold change vs veh, CARD8 / RFU, STRN3 / Fold change vs veh, STRN3 / RFU, ADK / Fold change vs veh, ADK / RFU, RASSF2 / Fold change vs veh, RASSF2 / RFU, WIPF1 / Fold change vs veh, WIPF1 / RFU, LARP1B / Fold change vs veh, LARP1B / RFU, RASA1 / Fold change vs veh, RASA1 / RFU, RB1 / Fold change vs veh, RB1 / RFU, PPFIA1 / Fold change vs veh, PPFIA1 / RFU, MAT2A / Fold change vs veh, MAT2A / RFU, CCT5 / Fold change vs veh, CCT5 / RFU, WDR92 / Fold change vs veh, WDR92 / RFU, CUX1 / Fold change vs veh, CUX1 / RFU, TTC7A / Fold change vs veh, TTC7A / RFU, TMEM135 / Fold change vs veh, TMEM135 / RFU, DEPTOR / Fold change vs veh, DEPTOR / RFU, CPM / Fold change vs veh, CPM / RFU, DNAJB6 / Fold change vs veh, DNAJB6 / RFU, CACNA2D3 / Fold change vs veh, CACNA2D3 / RFU, DTX4 / Fold change vs veh, DTX4 / RFU, TFCP2 / Fold change vs veh, TFCP2 / RFU, GMCL1 /// GMCL1P1 / Fold change vs veh, GMCL1 /// GMCL1P1 / RFU, AEBP2 / Fold change vs veh, AEBP2 / RFU, SNHG1 /// SNORD22 /// SNORD25 /// SNORD26 /// SNORD27 /// SNORD28 /// SNORD29 /// SNORD31 / Fold change vs veh, SNHG1 /// SNORD22 /// SNORD25 /// SNORD26 /// SNORD27 /// SNORD28 /// SNORD29 /// SNORD31 / Fold change (Aza/veh), C12orf56 (ProbeSet 11735607_a_at) / Fold change (ACY-1035/veh), C12orf56 (ProbeSet 11735607_a_at) / Fold change (Aza/veh), FGFR1OP (ProbeSet 11751329_s_at) / Fold change (ACY-1035/veh), FGFR1OP (ProbeSet 11751329_s_at) / Fold change (Aza/veh), VPS36 (ProbeSet 11739960_a_at) / Fold change (ACY-1035/veh), VPS36 (ProbeSet 11739960_a_at) / RFU SYPL1 (11715823_x_at) / Fold change /veh SYPL1 (11715823_x_at) / RFU IGFBP7 (11715501_s_at) / Fold change /veh IGFBP7 (11715501_s_at) / RFU REEP3 (11722064_at) / Fold change /veh REEP3 (11722064_at) / RFU IGLL1 (11728026_x_at) / Fold change /veh IGLL1 (11728026_x_at): dose or concentration left out as unconfirmed
Conditions: MV-4-11 cells, 48 hours

In the case of `Nc1ncn([C@@H]2O[C@H](CO)[C@@H](O)[C@H]2O)c(=O)n1` [azacitidine], the “Fold change /veh SYPL1 (11715823_x_at)” value is reported as 0.82.
